Values joined by “and” are separate entries in the source; they are usually repeats but may differ in a detail not shown here. Equal entries are not always repeated. Where two headings read alike, the source gives them in different places.
Assays:
[1] = target: T1, PfcProRS (Plasmodium falciparum, UniProt Q8I5R7); type: binding; settings: for dose-response signal (normalized), SI Fig 8: single replicates
T1 construct: made in house; host or cells: E. coli SoluBL-21

[2] = target: HsProRS (Homo sapiens, UniProt P07814); test: TR-FRET ligand displacement assay with tracer MAT379 (CoraFluor-1-Halo and anti-His6 antibody formats); type: binding; design: made in house; host or cells: E. coli SoluBL-21; settings: for TR-FRET dose-response, normalized signal (SI Fig 11): individual replicates; for normalized TR-FRET signal (dose-response replicates): SI Fig 15
Chain of HsProRS (P07814 996-1512): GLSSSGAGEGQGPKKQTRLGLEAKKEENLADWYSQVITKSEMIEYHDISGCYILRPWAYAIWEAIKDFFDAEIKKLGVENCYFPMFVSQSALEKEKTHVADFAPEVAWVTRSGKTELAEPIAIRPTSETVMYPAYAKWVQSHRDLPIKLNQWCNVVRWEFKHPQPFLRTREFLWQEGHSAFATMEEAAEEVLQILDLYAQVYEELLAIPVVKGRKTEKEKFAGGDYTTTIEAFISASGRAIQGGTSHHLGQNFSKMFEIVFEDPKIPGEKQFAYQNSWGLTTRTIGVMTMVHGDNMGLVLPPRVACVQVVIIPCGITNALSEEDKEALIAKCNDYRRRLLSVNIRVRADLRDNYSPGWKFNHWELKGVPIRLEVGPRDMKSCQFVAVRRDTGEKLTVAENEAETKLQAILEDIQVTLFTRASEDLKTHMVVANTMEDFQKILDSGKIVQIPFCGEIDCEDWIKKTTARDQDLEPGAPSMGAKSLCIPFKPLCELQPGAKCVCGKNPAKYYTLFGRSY

T1 sequence (Q8I5R7 249-746): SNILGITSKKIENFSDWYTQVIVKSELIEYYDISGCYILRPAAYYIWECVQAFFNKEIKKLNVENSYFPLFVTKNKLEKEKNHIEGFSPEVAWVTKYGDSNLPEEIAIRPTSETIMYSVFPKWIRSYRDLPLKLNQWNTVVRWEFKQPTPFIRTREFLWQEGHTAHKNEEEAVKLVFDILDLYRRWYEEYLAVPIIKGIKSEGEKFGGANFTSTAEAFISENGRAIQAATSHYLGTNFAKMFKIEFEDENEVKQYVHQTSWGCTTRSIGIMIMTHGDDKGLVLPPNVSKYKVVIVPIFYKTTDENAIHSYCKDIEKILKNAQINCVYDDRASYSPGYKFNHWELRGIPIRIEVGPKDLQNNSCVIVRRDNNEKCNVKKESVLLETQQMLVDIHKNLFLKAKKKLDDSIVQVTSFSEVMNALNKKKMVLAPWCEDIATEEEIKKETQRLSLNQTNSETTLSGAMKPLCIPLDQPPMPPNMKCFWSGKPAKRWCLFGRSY

## O=C(NC1Cc2ccccc2C1)c1nccnc1NC(=O)C1CCCCC1 [compound 2, reference compound]
[1]; Log[inhibitor] (M) -9.921
  dose-response signal (normalized), SI Fig 8: 1.02E+00 and 1.01E+00 and 9.29E-01 and 9.34E-01 and 1.07E+00 and 9.91E-01
[1]; Log[inhibitor] (M) -10.097
  dose-response signal (normalized), SI Fig 8: 9.97E-01 and 1.11E+00 (2×) and 9.85E-01 and 1.06E+00 and 9.77E-01
[1]; Log[inhibitor] (M) -10.585
  dose-response signal (normalized), SI Fig 8: 1.09E+00 and 8.10E-01 and 1.01E+00 and 1.14E+00 and 1.16E+00 and 1.07E+00
[1]; SI Fig 16a, values on -log scale
  PfcProRS -- best Kd: 8.144
[2]; HsProRS (KD [nM]) + ATP, 500 μM ATP, 250 nM MAT379
  Kd: 954 nM
[2]; HsProRS (KD [nM]) −, absence of substrates, 250 nM MAT379
  Kd: 371 nM
[2]; HsProRS - best Kd, SI Fig 16a, values on -log scale
  Kd: 2.16 nM
[2]; Log[inhibitor] (M) -5.000
  normalized TR-FRET ligand displacement signal, dose-response replicates (SI Fig 6): 1.03E-01 and 7.51E-02 and 1.04E-01
  TR-FRET dose-response, normalized signal (SI Fig 11): 8.64E-04 and 3.42E-02 and 3.40E-02
[2]; Log[inhibitor] (M) -5.301
  normalized TR-FRET ligand displacement signal, dose-response replicates (SI Fig 6): 1.90E-01 and 1.89E-01 and 1.86E-01
  TR-FRET dose-response, normalized signal (SI Fig 11): 7.30E-02 and 5.51E-02 and 3.97E-02
[2]; Log[inhibitor] (M) -5.602
  normalized TR-FRET ligand displacement signal, dose-response replicates (SI Fig 6): 3.08E-01 and 2.37E-01 and 3.84E-01
  TR-FRET dose-response, normalized signal (SI Fig 11): 1.33E-01 and 1.75E-01 and 1.42E-01
[2]; Log[inhibitor] (M) -5.903
  normalized TR-FRET ligand displacement signal, dose-response replicates (SI Fig 6): 6.24E-01 and 5.01E-01 and 5.97E-01
  TR-FRET dose-response, normalized signal (SI Fig 11): 2.61E-01 and 2.29E-01 and 2.70E-01
[2]; Log[inhibitor] (M) -6.204
  normalized TR-FRET ligand displacement signal, dose-response replicates (SI Fig 6): 7.10E-01 and 7.38E-01 and 7.90E-01
  TR-FRET dose-response, normalized signal (SI Fig 11): 4.85E-01 and 4.00E-01 and 4.14E-01
[2]; Log[inhibitor] (M) -6.505
  normalized TR-FRET ligand displacement signal, dose-response replicates (SI Fig 6): 9.53E-01 and 9.22E-01 and 9.58E-01
  TR-FRET dose-response, normalized signal (SI Fig 11): 5.65E-01 and 5.68E-01 and 5.80E-01
[2]; Log[inhibitor] (M) -6.806
  normalized TR-FRET ligand displacement signal, dose-response replicates (SI Fig 6): 8.96E-01 and 9.59E-01 and 9.45E-01
  TR-FRET dose-response, normalized signal (SI Fig 11): 6.77E-01 and 7.64E-01 and 7.01E-01
[2]; Log[inhibitor] (M) -7.107
  normalized TR-FRET ligand displacement signal, dose-response replicates (SI Fig 6): 1.10E+00 and 1.02E+00 and 1.05E+00
  TR-FRET dose-response, normalized signal (SI Fig 11): 8.54E-01 and 8.95E-01 and 8.55E-01
[2]; Log[inhibitor] (M) -7.408
  normalized TR-FRET ligand displacement signal, dose-response replicates (SI Fig 6): 1.04E+00
  TR-FRET dose-response, normalized signal (SI Fig 11): 8.94E-01 and 8.78E-01 and 9.74E-01
[2]; Log[inhibitor] (M) -7.709
  normalized TR-FRET ligand displacement signal, dose-response replicates (SI Fig 6): 9.76E-01 and 1.06E+00 and 1.03E+00
  TR-FRET dose-response, normalized signal (SI Fig 11): 9.26E-01 and 9.17E-01 and 9.24E-01
[2]; Log[inhibitor] (M) -8.010
  normalized TR-FRET ligand displacement signal, dose-response replicates (SI Fig 6): 9.42E-01 and 1.05E+00 and 9.60E-01
  TR-FRET dose-response, normalized signal (SI Fig 11): 9.79E-01 and 9.27E-01 and 9.78E-01
[2]; Log[inhibitor] (M) -8.311
  normalized TR-FRET ligand displacement signal, dose-response replicates (SI Fig 6): 1.02E+00 and 9.93E-01 and 1.06E+00
  TR-FRET dose-response, normalized signal (SI Fig 11): 9.15E-01 and 9.66E-01 and 9.82E-01
[2]; Log[inhibitor] (M) -8.612
  normalized TR-FRET ligand displacement signal, dose-response replicates (SI Fig 6): 9.95E-01 and 1.01E+00 and 1.07E+00
  TR-FRET dose-response, normalized signal (SI Fig 11): 9.61E-01 and 9.59E-01 and 9.62E-01
[2]; Log[inhibitor] (M) -8.913
  normalized TR-FRET ligand displacement signal, dose-response replicates (SI Fig 6): 1.02E+00 and 1.03E+00 and 9.75E-01
  TR-FRET dose-response, normalized signal (SI Fig 11): 9.90E-01 and 9.95E-01 and 9.69E-01
[2]; Log[inhibitor] (M) -9.214
  normalized TR-FRET ligand displacement signal, dose-response replicates (SI Fig 6): 9.83E-01 and 1.03E+00 and 1.00E+00
  TR-FRET dose-response, normalized signal (SI Fig 11): 9.62E-01 and 1.02E+00 and 1.04E+00
[2]; Log[inhibitor] (M) -4.99976
  normalized TR-FRET signal (dose-response replicates): 1.25E-01 and 2.68E-01 and 1.89E-01
[2]; Log[inhibitor] (M) -5.3009
  normalized TR-FRET signal (dose-response replicates): 2.77E-01 and 4.13E-01 and 4.17E-01
[2]; Log[inhibitor] (M) -5.60199
  normalized TR-FRET signal (dose-response replicates): 5.80E-01 and 6.20E-01 and 4.83E-01
[2]; Log[inhibitor] (M) -5.90248
  normalized TR-FRET signal (dose-response replicates): 7.22E-01 and 7.32E-01 and 6.10E-01
[2]; Log[inhibitor] (M) -6.20323
  normalized TR-FRET signal (dose-response replicates): 6.14E-01 and 7.99E-01 and 9.70E-01
[2]; Log[inhibitor] (M) -6.51347
  normalized TR-FRET signal (dose-response replicates): 9.27E-01 and 8.30E-01 and 1.04E+00
[2]; Log[inhibitor] (M) -6.79595
  normalized TR-FRET signal (dose-response replicates): 1.19E+00 and 9.68E-01 and 1.04E+00
[2]; Log[inhibitor] (M) -7.10794
  normalized TR-FRET signal (dose-response replicates): 9.40E-01 and 8.31E-01 and 8.97E-01
[2]; Log[inhibitor] (M) -7.40526
  normalized TR-FRET signal (dose-response replicates): 6.74E-01 and 8.60E-01 and 9.73E-01
[2]; Log[inhibitor] (M) -7.7137
  normalized TR-FRET signal (dose-response replicates): 9.61E-01 and 8.55E-01 and 9.51E-01
[2]; Log[inhibitor] (M) -8
  normalized TR-FRET signal (dose-response replicates): 9.74E-01 and 7.58E-01 and 8.90E-01
[2]; Log[inhibitor] (M) -8.331
  normalized TR-FRET signal (dose-response replicates): 8.05E-01 and 1.09E+00 and 1.00E+00
[2]; Log[inhibitor] (M) -8.57403
  normalized TR-FRET signal (dose-response replicates): 1.32E+00 and 1.15E+00 and 1.19E+00
[2]; Log[inhibitor] (M) -8.87506
  normalized TR-FRET signal (dose-response replicates): 9.35E-01 and 9.99E-01 and 1.09E+00
[2]; Log[inhibitor] (M) -9.17609
  normalized TR-FRET signal (dose-response replicates): 1.03E+00 and 1.04E+00 and 1.09E+00

Source: PMC9403976, “Elucidating the path to Plasmodium prolyl-tRNA synthetase inhibitors that overcome halofuginone resistance” (Nature Communications, 2022)
